Patent US10130615B2, “Benzomorphan analogs and the use thereof” (priority 2014, dated 2018)

What was measured:
μ-opioid receptor [1] = molecular target: T1, μ-opioid receptor (Homo sapiens, UniProt P35372); test: biochemical; parameters: purchased Perkin Elmer, Shelton, Conn; host or cells: HEK-293 or CHO; details: HEK-293 or CHO cells; for EC50: read-out: GTPγS μ EC50; for Emax: relative to DAMGO, read-out: GTPγS μ Emax
μ-opioid receptor [2] = molecular target: T1, μ-opioid receptor; test: cell-based; parameters: purchased Perkin Elmer, Shelton, Conn; details: U2OS cells; for EC50: read-out: β-Arr2 μ EC50; for Emax: read-out: β-Arr2 μ Emax
μ-opioid receptor [3] = molecular target: T1, μ-opioid receptor; test: μ-opioid receptor GTPγS functional assay, U2OS cells; details: for Emax: read-out: GTPγS μ Emax
κ-opioid receptor = κ-opioid receptor (Homo sapiens, UniProt P41145); test: κ-opioid receptor GTPγS functional assay, U2OS cells; type: biochemical; parameters: expressed in transfected cells; host or cells: U-2 OS; details: U2OS cells; for EC50: read-out: GTPγS κ EC50
Experimental: Plates were incubated for 30 min at a temperature of about 25° C. with shaking.

κ-opioid receptor, sequence (P41145 whole entry): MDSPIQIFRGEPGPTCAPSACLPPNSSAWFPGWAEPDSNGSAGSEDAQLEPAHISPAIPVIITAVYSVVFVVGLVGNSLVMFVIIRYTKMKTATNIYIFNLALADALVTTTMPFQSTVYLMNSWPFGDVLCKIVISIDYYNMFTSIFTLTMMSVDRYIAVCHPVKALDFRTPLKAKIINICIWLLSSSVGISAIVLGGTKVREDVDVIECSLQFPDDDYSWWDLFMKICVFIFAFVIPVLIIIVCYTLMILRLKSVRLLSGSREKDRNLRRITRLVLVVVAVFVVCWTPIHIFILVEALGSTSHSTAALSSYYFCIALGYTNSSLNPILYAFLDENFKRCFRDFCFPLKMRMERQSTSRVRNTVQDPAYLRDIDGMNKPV
T1 sequence (P35372 whole entry, species assumed): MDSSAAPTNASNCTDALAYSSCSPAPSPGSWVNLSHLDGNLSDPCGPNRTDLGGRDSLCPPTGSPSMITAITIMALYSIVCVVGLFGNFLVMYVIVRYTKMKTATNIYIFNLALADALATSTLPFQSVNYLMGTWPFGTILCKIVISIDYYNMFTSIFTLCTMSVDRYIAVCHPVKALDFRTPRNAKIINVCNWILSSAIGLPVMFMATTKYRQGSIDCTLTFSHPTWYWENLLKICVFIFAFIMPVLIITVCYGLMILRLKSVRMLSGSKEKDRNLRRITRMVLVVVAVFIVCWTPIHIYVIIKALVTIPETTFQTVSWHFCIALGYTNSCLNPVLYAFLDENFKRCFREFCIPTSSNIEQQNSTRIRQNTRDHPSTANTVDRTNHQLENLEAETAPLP

| Structure (SMILES) | EC50 (μ-opioid receptor [1]) [nM] | Emax (μ-opioid receptor [1]) [%] | EC50 (μ-opioid receptor [2]) [nM] | Emax (μ-opioid receptor [2]) [%] | EC50 (μ-opioid receptor [3]) [nM] | Emax (μ-opioid receptor [3]) [%] | Emax (κ-opioid receptor) [%] | EC50 (κ-opioid receptor) [nM] |
| --- | --- | --- | --- | --- | --- | --- | --- | --- |
| C[C@H]1[C@H]2Cc3ccc(O)cc3[C@]1(CCNC(=O)Nc1ccc(F)cc1)CCN2CC1CC1 [Compound 18, 1-(2-((2R,6R,11R)-3-(cyclopropyl-methyl)-8-hydroxy-11-methyl-2,3,4,5-tetrahydro-2,6-methanobenzo[d]azocin-6(1H)-yl)ethyl)-3-(4-fluorophenyl)urea] | 0.12 | 22.4 ± 1.04 | 0.31 ± 0.063 | 4.38 ± 0.35 |  |  |  |  |
| C[C@H]1[C@H]2Cc3ccc(O)cc3[C@]1(CCNC(=O)Nc1ccccc1F)CCN2C [Compound 78, 1-(2-fluorophenyl)-3-(2-((2R,6R,11R)-8-hydroxy-3,11-dimethyl-2,3,4,5-tetrahydro-2,6-methanobenzo[d]azocin-6(1H)-yl)ethyl)urea] | 33.5 ± 4.9 | 71 ± 3.61 | 90.5 ± 15.4 | 67 ± 3.71 |  |  |  |  |
| C[C@H]1[C@H]2Cc3ccc(O)cc3[C@]1(CCNC(=O)Nc1cccc(F)c1)CCN2C [Compound 79, 1-(3-fluorophenyl)-3-(2-((2R,6R,11R)-8-hydroxy-3,11-dimethyl-2,3,4,5-tetrahydro-2,6-methanobenzo[d]azocin-6(1H)-yl)ethyl)urea] | 19.7 ± 1.11 | 71.6 ± 5.96 | 39.1 ± 7.13 | 58.9 ± 7.55 |  |  |  |  |
| C[C@H]1[C@H]2Cc3ccc(O)cc3[C@]1(CCNC(=O)Nc1ccc(F)cc1)CCN2C [Compound 76, 1-(4-fluorophenyl)-3-(2-((2R,6R,11R)-8-hydroxy-3,11-dimethyl-2,3,4,5-tetrahydro-2,6-methanobenzo[d]azocin-6(1H)-yl)ethyl)urea] | 28.8 ± 10.5 | 58.5 ± 2.78 | 28.4 ± 3.98 | 28.9 ± 1.69 |  |  |  |  |
| C[C@H]1[C@H]2Cc3ccc(O)cc3[C@]1(CCNC(=O)[C@@H]1CCC(=O)N1)CCN2C [Compound 72, (S)-N-(2-((2R,6R,11R)-8-hydroxy-3,11-dimethyl-2,3,4,5-tetrahydro-2,6-methano-benzo[d]azocin-6(1H)-yl)ethyl)-5-oxopyrrolidine-2-carboxamide] | 241 ± 56.7 | 37.2 ± 1.8 | 267 ± 63.3 | 5.8 ± 0.42 |  |  |  |  |
| C[C@H]1[C@H]2Cc3ccc(O)cc3C1(CCNS(=O)(=O)N(C)C)CCN2C [Compound 80] | 134 ± 3.21 | 27.9 ± 0.47 | 1180 ± 822 | 2.62 ± 0.36 |  |  |  |  |
| COc1ccc2c(c1)[C@]1(CCN3CCC[C@@H]3C(=O)O)CCN(C)[C@H](C2)[C@@H]1C [Compound 60, (2-((2R,6S,11R)-8-methoxy-3,11-dimethyl-2,3,4,5-tetrahydro-2,6-methanobenzo[d]azocin-6(1H)-yl)ethyl)-D-proline] |  |  |  |  | 4910 ± 1080 | 49 ± 3.61 | 97.7 ± 8.09 |  |
| COc1ccc2c(c1)[C@]1(CCNCCCn3ccnc3)CCN(C)[C@H](C2)[C@@H]1C [Compound 55, 3-(1H-imidazol-1-yl)-N-(2-((2R,6R,11R)-8-methoxy-3,11-dimethyl-2,3,4,5-tetrahydro-2,6-methanobenzo[d]azocin-6(1H)-yl)ethyl)propan-1-amine] |  |  |  |  | 14500 ± 653 | 82 ± 2.65 | 113 ± 1.45 | 14700 ± 1240 |
| COC[C@@H]1CCCN1CC[C@]12CCN(C)[C@H](Cc3ccc(OC)cc31)[C@@H]2C [Compound 56, (2R,6S,11R)-8-methoxy-6-(2-((S)-2-(methoxymethyl)pyrrolidin-1-yl)ethyl)-3,11-dimethyl-1,2,3,4,5,6-hexahydro-2,6-methanobenzo[d]azocine] |  |  |  |  | 5990 ± 1220 | 72.3 ± 2.85 | 94.7 ± 4.48 | 5490 ± 434 |
| COc1ccc2c(c1)[C@]1(CCNCCCN3CCCC3=O)CCN(C)[C@H](C2)[C@@H]1C [Compound 57, 1-(3-((2-((2R,6R,11R)-8-methoxy-3,11-dimethyl-2,3,4,5-tetrahydro-2,6-methanobenzo-[d]azocin-6(1H)-yl)ethyl)amino)propyl)pyrrolidin-2-one] |  |  |  |  | 11300 ± 435 | 70.7 ± 2.03 | 118 ± 2 | 11400 ± 994 |
